Reference: publication PMC11363738 (Journal of Enzyme Inhibition and Medicinal Chemistry, 2024)

How the values were obtained:
in vitro [1] = conditions: African green monkey
SARS-CoV-2 3CL^pro = target: T1, SARS-CoV-2 3CL^pro (Severe acute respiratory syndrome coronavirus 2, UniProt P0DTD1); experiment: SARS-CoV-2 3CLpro FRET activity assay (Beyotime inhibitor screening kit); assay type: biochemical; conditions: for IC50: FRET assay, averages of three independent experiments; for inhibition at 1 µM: n = 3, read-out: rate of inhibiting SARS-CoV-2 3CL^pro
T1 construct: purchased Beyotime, China P0315M

[2] = test system: SARS-CoV-2 Omicron virus BA.5; experiment: Antiviral activity in Vero E6 cells, preventive model (viral RNA by qRT-PCR); assay type: cell-based; conditions: Severe acute respiratory syndrome coronavirus 2, Vero C1008; read-out: EC50 (concentration for 50% reduction in viral infectivity), preventive model
in vitro [3] = conditions: African green monkey; remark: listed apart in the source
[4] = test system: SARS-CoV-2 Omicron virus BA.5; experiment: microbe, parasite or virus in culture; assay type: cell-based; conditions: for EC50: Severe acute respiratory syndrome coronavirus 2, Vero C1008, 96 h, ND = not detectable, inactive at 10 μM, mean ± SD, read-out: EC50, therapeutic model
[5] = Normal cytotoxicity test in Vero E6 cells, therapeutic model (Celltiter-Glo, CC plate); conditions: African green monkey, Vero E6 cells (uninfected)
[6] = Cytotoxicity against Vero E6 cells, CCK-8 assay (preventive model); conditions: African green monkey
rats and mice [7] = test system: rats and mice; parameters: method as in earlier work; conditions: cited from earlier work
rats and mice [8] = test system: rats and mice; parameters: method as in PMID 12776572; conditions: cited from earlier work
rats and mice [9] = conditions: cited from earlier work
SARS-CoV-2 = test system: SARS-CoV-2; parameters: method as in PMID 34131140; conditions: read-out: intracellular antiviral activity EC50; cited from earlier work

**Q.** Which results are given for COC(=O)CCCCCOc1cc(O)c2c(=O)c(O)c(-c3cc(O)c(O)c(O)c3)oc2c1 [Compound 5, Methyl 6-((3,5-dihydroxy-4-oxo-2–(3,4,5-trihydroxyphenyl)-4H-chromen-7-yl)oxy) hexano-ate]?
**A.** CC50 (in vitro [1]): > 100 µM; IC50 (SARS-CoV-2 3CL^pro): 1.69 ± 0.16 µM; EC50 [2]: 37.6 ± 2.05 µM; CC50 (in vitro [3]): > 100 µM

**Q.** With CCOC(=O)COc1cc(O)c2c(=O)c(O)c(-c3cc(O)c(O)c(O)c3)oc2c1 [Compound 6, Ethyl 2-((3,5-dihydroxy-4-oxo-2–(3,4,5-trihydroxyphenyl)-4H-chromen-7-yl)oxy)acetate] as the compound, how does the IC50 (SARS-CoV-2 3CL^pro) read?
**A.** Its IC50 is 0.95 ± 0.12 µM.

**Q.** And the inhibition at 1 µM (SARS-CoV-2 3CL^pro)?
**A.** Its inhibition at 1 µM is over 50%.

**Q.** For CCC(CC)COC(=O)[C@H](C)N[P@](=O)(OC[C@H]1O[C@@](C#N)(c2ccc3c(N)ncnn23)[C@H](O)[C@@H]1O)Oc1ccccc1 [Remdesivir], which EC50 [4] is on record?
**A.** The EC50 was 0.91 ± 0.39 µM.

**Q.** What about the EC50 [2] of the same compound?
**A.** The EC50 was 0.64 ± 0.12 µM.

**Q.** And the CC50 at 4 days [5]?
**A.** The CC50 at 4 days was 49.7 ± 0.13 µM.

**Q.** And the CC50 at 24 h [6]?
**A.** The CC50 at 24 h was over 100 µM.

**Q.** With COC(=O)COc1cc(O)c2c(=O)c(O)c(-c3cc(O)c(O)c(O)c3)oc2c1 [Compound 3, Methyl 2-((3,5-dihydroxy-4-oxo-2–(3,4,5-trihydroxyphenyl)-4H-chromen-7yl)oxy)acetate] as the compound, how does the CC50 (in vitro [1]) read?
**A.** The CC50 was over 100 µM.

**Q.** And the IC50 (SARS-CoV-2 3CL^pro)?
**A.** The IC50 was 0.72 ± 0.04 µM.

**Q.** And the inhibition at 1 µM (SARS-CoV-2 3CL^pro)?
**A.** The inhibition at 1 µM was over 50%.

**Q.** What about the EC50 [2] of the same compound?
**A.** The EC50 was 15.8 ± 0.92 µM.

**Q.** What about the CC50 (in vitro [3]) of the same compound?
**A.** Its CC50 is over 100 µM.

**Q.** For CCOC(=O)CCCOc1cc(O)c2c(=O)c(O)c(-c3cc(O)c(O)c(O)c3)oc2c1 [Compound 7, Ethyl 4-((3,5-dihydroxy-4-oxo-2–(3,4,5-trihydroxyphenyl)-4H-chromen-7-yl)oxy)butano-ate], which IC50 (SARS-CoV-2 3CL^pro) is on record?
**A.** Its IC50 is 1.53 ± 0.14 µM.

**Q.** For CCOC(=O)CCCCCCOc1cc(O)c2c(=O)c(O)c(-c3cc(O)c(O)c(O)c3)oc2c1 [Compound 9, Ethyl 7-((3,5-dihydroxy-4-oxo-2–(3,4,5-trihydroxyphenyl)-4H-chromen-7-yl)oxy)heptano-ate], which IC50 (SARS-CoV-2 3CL^pro) is on record?
**A.** The IC50 was 1.68 ± 0.19 µM.

**Q.** With COC(=O)CCCOc1cc(O)c2c(=O)c(O)c(-c3cc(O)c(O)c(O)c3)oc2c1 [Compound 4, Methyl4-((3,5-dihydroxy-4-oxo-2–(3,4,5-trihydroxyphenyl)-4H-chromen-7-yl)oxy)butano-ate] as the compound, how does the IC50 (SARS-CoV-2 3CL^pro) read?
**A.** Its IC50 is 1.26 ± 0.09 µM.

**Q.** Which “inhibitory activity against Omicron virus, therapeutic model” value [4] does the source give for O=c1c(O)c(-c2cc(O)c(O)c(O)c2)oc2cc(O)cc(O)c12 [Compound 2, Myricetin] here?
**A.** The value was “did not have significant inhibitory activity”.

**Q.** What about the EC50 [2] of the same compound?
**A.** Its EC50 is 12.2 ± 0.23 µM.

**Q.** And the CC50 at 4 days [5]?
**A.** Its CC50 at 4 days is over 100 µM.

**Q.** And the CC50 at 24 h [6]?
**A.** The CC50 at 24 h was over 100 µM.

**Q.** For O=C1c2c(O)cc(O)cc2O[C@H](c2cc(O)c(O)c(O)c2)[C@H]1O [Compound 1, Dihydromyricetin], which “inhibitory activity against Omicron virus, therapeutic model” value [4] is on record?
**A.** The value was “did not have significant inhibitory activity”.

**Q.** What about the “result in genotoxicity tests” value (rats and mice [7]) of the same compound?
**A.** Its value is “negative”.

**Q.** And the “result in long-term toxicity tests” value (rats and mice [8])?
**A.** The value was “negative”.

**Q.** And the “result in acute oral toxicity tests” value (rats and mice [9])?
**A.** The value was “negative”.

**Q.** And the EC50 [2]?
**A.** The EC50 was 21.2 ± 0.62 µM.

**Q.** And the CC50 at 4 days [5]?
**A.** The CC50 at 4 days was over 100 µM.

**Q.** What about the EC50 (SARS-CoV-2) of the same compound?
**A.** The EC50 was 13.6 µM.

**Q.** What about the CC50 at 24 h [6] of the same compound?
**A.** Its CC50 at 24 h is over 100 µM.

**Q.** With CCOC(=O)CCCCCCCOc1cc(O)c2c(=O)c(O)c(-c3cc(O)c(O)c(O)c3)oc2c1 [Compound 10, Ethyl 8-((3,5-dihydroxy-4-oxo-2–(3,4,5-trihydroxyphenyl)-4H-chromen-7-yl)oxy)octan-oate] as the compound, how does the EC50 [4] read?
**A.** The EC50 was 11.5 ± 3.68 µM.

**Q.** What about the IC50 (SARS-CoV-2 3CL^pro) of the same compound?
**A.** Its IC50 is 2.36 ± 0.13 µM.

**Q.** And the EC50 [2]?
**A.** The EC50 was 46.1 ± 4.67 µM.

**Q.** Which IC50 (SARS-CoV-2 3CL^pro) does the source give for CCOC(=O)CCCCCOc1cc(O)c2c(=O)c(O)c(-c3cc(O)c(O)c(O)c3)oc2c1 [Compound 8, Ethyl 6-((3,5-dihydroxy-4-oxo-2–(3,4,5-trihydroxyphenyl)-4H-chromen-7-yl)oxy)hexane-ate] here?
**A.** The IC50 was 1.73 ± 0.11 µM.
